{
  "source": "paper PMC11091117",
  "about": "“A fluorescently-tagged tick kinin neuropeptide triggers peristalsis and labels tick midgut muscles” (Scientific Reports, 2024)",
  "system": "tick kinin receptor (recombinant R. microplus receptor, CHO-K1 BMLK3 cells)",
  "assay": "Confocal visualization of recombinant kinin receptor on live BMLK3 cells with fluorescently labeled kinin peptide",
  "format": "binding, Rhipicephalus microplus",
  "text": "Three peptides were used in this study. These included: 1) the ligand for the endogenous tick kinin receptor from Rhipicephalus sanguineus, Rhisa-kinin 8 peptide of sequence GTGEDQAFSPWGamide (Rhisa-K-8; RK8; of identical sequence to Rhimi-K-8 in Rhipicephalus microplus)[48], 2) the same peptide but fluorescently labeled at the N-terminus with tetramethylrhodamine (TMR) a red fluorescent dye, designated TMR-Rhisa-K-8 (TMR-RK8), and 3) a labeled peptide synthesized with the scrambled sequence of the kinin ligand, designated TMR-Scrambled. The sequence of TMR-RK8 was TMR-C-GTGEDQAFSPWGamide). The TMR-Scrambled kinin (TMR-C-GTQWGPGFEADSamide) served as a negative control for tissue labeling. […]\nThe BMLK3 and V/O cells (5000–10,000 cells) were seeded separately in 200 µL selective media onto the two chambers of the cover glass (Lab-Tek Chambered Coverglass, 4.2 cm^2 area, #1.0 German borosilicate glass, sterile, Cat # 155,380, Thermo Fisher Scientific Inc., Walthams, MA) and grown in the incubator overnight at 37 °C and 5% CO2. The next day, cells would be ready for fluorescent labeling: the selective media was replaced with 200 µL HBSS to rinse the cells. […] Images were analyzed and computer-colored using Fiji/ImageJ (National Institutes of Health, Bethesda, MD). […]",
  "note": "“Also recorded” adds a separate entry of the source.",
  "data": [
    {"substance": "TMR-C-GTGEDQAFSPWGamide [TMR-RK8]", "values": [
      {"measurement": "labeling of BMLK3 cells, Fig. S2 (in words)", "setting": "1 µM TMR-RK8, confocal Leica SP8 with DIC, 1.1 µm Z-step, 13 slices", "value": "observed in most cells"},
      {"measurement": "labeling of BMLK3 cells (in words)", "setting": "live BMLK3 cells, 10 µM labeled peptide, 1 min, HBSS, confocal Leica SP8, Ex 542 nm, Em 572–759 nm", "value": "showed specific labeling; also recorded: observed only in BMLK3 cells"}
    ]}
  ]
}
